Results: patent US7728039B2, “Biphenyl and Naphthyl-Phenyl Hydroxamic Acid Derivatives” (Sigma-Tau Industrie Farmaceutiche Riunite S.p.A., priority 2005, dated 2010)
Like-named read-outs stand apart in the source and are kept apart here.

Experiments:
[1] = tested on: NB4 human promyelocytic leukaemia; experiment: Sulphorodamine B cytotoxicity test on NB4 cells; assay type: cell-based
Source text: (§1) The cytotoxic effect of some biphenyl and phenylnaphthyl compounds bearing a hydroxamic acid group is reported herein. […] The chemical structures of the tested compounds of the invention and of the corresponding compounds bearing a carboxylic acid group are reported in FIG. 1. To test the effects of the compounds on cell growth, NB4 human promyelocytic leukaemia, NCI-H460 non-small cell carcinoma cells, H460/(R9A) (resistant to carboxylic acid-bearing compounds: ST1898, ST1926, ST1964), HCT-116 human colon carcinoma cells, IGROV-1 and IGROV-1/Pt (sensitive ovarian carcinoma and platinum-resistant ovarian carcinoma cells, respectively) were used. NB4 and NCI-H460 tumour cells were grown in RPMI 1640 containing 10% foetal bovine serum (GIBCO), HCT-116 tumour cells were grown in McCoy's 5A containing 10% foetal bovine serum (GIBCO), IGROV-1 and IGROV-1/Pt were grown in DMEM containing 10% foetal bovine serum (GIBCO),
(§2) Tumour cells were seeded in 96-well tissue culture plates at approximately 10% confluence and were allowed to attach and recover for at least 24 h. Varying concentrations of the drugs were then added to each well to calculate their IC50 value (the concentration which inhibits the 50% of cell survival). The plates were incubated for 24 h at 37° C. At the end of the treatment, for NB4 tumour cells in suspension, the procedure was performed as follows: medium culture was removed by centrifugation of the plates at 1600×g for 10 min and the surnatant was removed. 250 μl PBS were added, then the plates were centrifuged at 1600×g for 10 min, the surnatant was removed. 200 μl/well of medium culture RPMI 1640 containing 10% FCS were added and the plates were incubated at 37° C. for other 48 h. The plates were centrifuged again at 1600×g for 10 min, the medium culture was removed and 200 μl PBS and 50 μl of cold 80% TCA were added. The plates were incubated on ice for at least 1 h. TCA was removed, the plates were washed 3 times for immersion in distilled-water and dried on paper and at 40° C. for 5 min. Then 200 μl of 0.4% sulphorodamine B in 1% acetic acid were added. The plates were incubated at room temperature for other 30 min. Sulphorodamine B was removed, the plates were washed for immersion in 1% acetic acid for 3 times, then they were dried on paper and at 40° C. for 5 min. Then 200 μl Tris 10 mM were added, the plates were kept under stirring for 20 min. The survival cell was determined as optical density by a Multiskan spectrofluorimeter at 540 nm. For the tumour cells in adhesion (NCI-H460 and HCT-116), the procedure was as above mentioned, except that at the end of the treatment, the plates were washed by remotion of the surnatant and addition of PBS 3 times without centrifugation. Also the last day of the assay, the surnatant was removed without centrifugation.
(§3) The amount of cells killed was calculated as the percentage decrease in sulphorodamine B binding compared with control cultures. The IC50 values (the concentration which inhibits the 50% of cell survival) were calculated with the “ALLFIT” program.

[2] = tested on: NB4 promyelocytic leukaemia cells; experiment: Differentiation of NB4 tumour cells by nitroblue tetrazolium (NBT) reduction, with or without ATRA; assay type: cell-based, human; conditions: 3 days, NBT-reducing activity; for Differentiation AC50: compound alone (without ATRA)
Source text: Relevant aspects of the differentiation program set in motion by ATRA in APL cells can be reproduced in primary cultures of leukemic blasts and in the derived NB4 cell line, which is a unique model for the study of the pharmacologic activity of ATRA and derivatives. Pharmacological concentrations of ATRA arrest the growth of NB4 blasts and differentiate them into cells that resemble mature neutrophils. This is followed by a slow process of apoptosis. […] In particular, the differentiation of NB4 tumour cells induced by the compounds was determined by nitroblue tetrazolium (NBT) reduction. NB4 promyelocytic leukaemia cells were seeded at a density of 150000 cells/ml in RPMI 1640 medium containing 10% FCS. To measure the cytodifferentiating effect of the molecules, tumour cells were treated with the compounds at different concentrations starting from at least 0.4 μM to 0.01 μM, whereas to measure the enhancing action of the molecules of ATRA activity, NB4 cells were treated with increasing concentrations of the molecules in the presence or absence of ATRA at a suboptimal concentration (5 nM).
Tumour cells were incubated for 3 days at 37° C. without replacing the medium culture. To measure the prodifferentiative effect, 500,000 cells were collected, centrifuged and resuspended in 1 ml of RPMI 1640 medium containing 10% FCS, 1 mg/ml of nitroblue tetrazolium (NBT) and 100 ng of PMA (4-phorbol-12-myristate-13-acetate). The tumour cells resuspended were incubated at 37° C. for 60 min. At the end of the incubation, tumour cells were centrifuged and the pellet was resuspended in 1 ml of PBS containing Triton ×100 at 10%. The samples were sonicated and the absorbance was determined at 540 nm with a spectrophotometer. Differentiation of tumor cells as AC50 (activating concentration) was evaluated as the concentration of the compound giving 50% of the maximal induction of NBT-reducing activity with or without ATRA.

[3] = tested on: IGROV-1 (sensitive ovarian carcinoma cells); experiment: Sulphorodamine B cytotoxicity test on IGROV-1 cells; assay type: cell-based; conditions: read-out: IC50 ± SD, IGROV-1
Source text: as §1, §2, §3

[4] = tested on: IGROV-1/Pt (platinum-resistant ovarian carcinoma cells); experiment: Sulphorodamine B cytotoxicity test on IGROV-1/Pt cells; assay type: cell-based; conditions: read-out: IC50 ± SD, IGROV-1/Pt
Source text: as §1, §2, §3

[5] = tested on: NCI-H460 non-small cell carcinoma cells; experiment: Sulphorodamine B cytotoxicity test on NCI-H460 cells; assay type: cell-based; conditions: SRB, read-out: IC50 ± SD, NCI-H460
Method: The chemical structures of the tested compounds of the invention and of the corresponding compounds bearing a carboxylic acid group are reported in FIG. 1. […] NB4 and NCI-H460 tumour cells were grown in RPMI 1640 containing 10% foetal bovine serum (GIBCO), HCT-116 tumour cells were grown in McCoy's 5A containing 10% foetal bovine serum (GIBCO), IGROV-1 and IGROV-1/Pt were grown in DMEM containing 10% foetal bovine serum (GIBCO),
as §2, §3

[6] = tested on: HCT-116 human colon carcinoma cells; experiment: Sulphorodamine B cytotoxicity test on HCT-116 cells; assay type: cell-based; conditions: Homo sapiens, Table 2, SRB, read-out: IC50 ± SD, HCT-116
Source text: as §1, §2, §3

[7] = tested on: NCI-H460 R9A tumour cells (H460/(R9A), resistant to carboxylic acid-bearing compounds); experiment: Sulphorodamine B cytotoxicity test on ST1926-resistant NCI-H460 R9A cells; assay type: cell-based; conditions: for overcoming of resistance on H460/R9A: H460/R9A versus sensitive NCI-H460, result in words; for IC50: Table 3, resistant NCI-H460 R9A, SRB, read-out: IC50 ± SD, NCI-H460 R9A; for RI (resistance index): IC50 on resistant tumour cell line/IC50 on sensitive tumour cell line (NCI-H460 R9A / NCI-H460)
Source text: as §1, §2, §3
The resistant tumour cell line NCI H460 R9A was a clone selected for the resistance to ST1926 (Table 3). To obtain the resistant tumour cell line, the sensitive NCI-H460 tumour cells were treated with 2 μM ST1926 for 24 hours and maintained in drug-free medium for a recovering time of 7 days. Then, survived cells were cultured applying a continuous selective pressure of 2 μM (10×IC50) ST1926. Resistant NCI-H460 cells were subculture for 3-4 times before increasing ST1926 concentration to 4 μM (20×IC50). Survived cells were seeded in 96-well plates to isolate resistant cells clones and maintained in complete medium with 4 μM of ST1926. The tumour cell line was maintained at least for one week, before seeding for SRB cytotoxicity assay, in drug-free medium.
To evaluate the effect of the compound on survival cells, the sulphorodamine B test was used. […]

[8] = Table 4, NB4 tumour cells, compound alone, read-out: IC50 (μM ± SD)
[9] = Homo sapiens, NB-4, Table 1, NB4, 24 h treatment, 48 h recovery, SRB, read-out: IC50 ± SD, NB4
[10] = Homo sapiens, NCI-H460, Table 2, NCI-H460
[11] = Homo sapiens, NCI-H460, Table 3, sensitive NCI-H460
[12] = Homo sapiens, NB-4, Table 4, NB4 tumour cells, compound alone, read-out: IC50 (μM ± SD)

| Compound | Differentiation AC50 [2] | IC50 [5, 10] | IC50 [5, 11] | IC50 [6] | overcoming of resistance on H460/R9A [7] | IC50 ([7]; Homo sapiens) | RI (resistance index) [7] | IC50 [1, 12] | other results |
| --- | --- | --- | --- | --- | --- | --- | --- | --- | --- |
| E,E-5-biphenylyl-pentadienoic acid N-hydroxyamide [ST3400, reference compound] | no differentiation |  |  |  |  |  |  |  | IC50 [1, 8]: 0.66 ± 0.003 µM |
| COc1ccc(-c2ccc(/C=C/C(=O)NO)cc2)cc1C12CC3CC(CC(C3)C1)C2 [ST3056, E-3-(3′-Adamantan-1-yl-4′-methoxy-biphenyl-4-yl)-N-hydroxy-acrylamide] |  | 620 ± 40 nM | 620 ± 40 nM | 1300 ± 100 nM | completely overcame the resistance | 1200 ± 40 nM | 1.9 |  | IC50 [1, 9]: 0.6 ± 0.05 µM; IC50 ([3]; Homo sapiens, Table 1, SRB): 960 ± 30 nM; IC50 ([4]; Homo sapiens, Table 1, SRB): 1790 ± 70 nM |
| O=C(/C=C/c1ccc(-c2ccc(O)c(C34CC5CC(CC(C5)C3)C4)c2)c(Cl)c1)NO [ST3088, E-3-(3′-Adamantan-1-yl-2-chloro-4′-hydroxy-biphenyl-4-yl)-N-hydroxy-acrylamide] |  | 5400 ± 300 nM | 5400 ± 300 nM | 5400 ± 900 nM | the same characteristic are retained | 7500 ± 100 nM | 1.4 |  | IC50 ([3]; Homo sapiens, Table 2, SRB): 1340 ± 40 nM; IC50 ([4]; Homo sapiens, Table 2, SRB): 1610 ± 100 nM |
| O=C(/C=C/c1ccc(-c2ccc(O)c(C34CC5CC(CC(C5)C3)C4)c2)cc1)NO [ST2992, E-3-[3′-(1-adamantyl)-4′-hydroxy-biphenyl-4-yl]-N-hydroxy-acrylamide] | no differentiation | 1200 ± 30 nM | 1200 ± 30 nM | 3000 ± 200 nM | completely overcame the resistance | 1200 ± 100 nM | 1.0 | 0.68 ± 0.07 µM | IC50 ([3]; Homo sapiens, Table 2, SRB): 770 ± 50 nM; IC50 ([4]; Homo sapiens, Table 2, SRB): 550 ± 50 nM; AC50 ([2]; Homo sapiens, 72 h, combined with suboptimal ATRA (5 nM)): 190 nM |
| O=C(O)/C=C/c1ccc(-c2ccc(O)cc2)cc1 [ST2188, E-4-(4-hydroxyphenyl)cinnamic acid, reference compound] |  |  |  |  |  |  |  |  | IC50 [1, 9]: 78.7 ± 7.4 µM; IC50 ([3]; Homo sapiens, Table 1, SRB): 89000 ± 11000 nM; IC50 ([4]; Homo sapiens, Table 1, SRB): 156000 ± 2000 nM |
| CN(C)c1ccc(-c2ccc(/C=C/C(=O)NO)cc2)cc1 [ST3444, E-3-[4′-dimethylaminobiphenyl-4-yl]-N-hydroxy-acrylamide, reference compound] | no differentiation |  |  |  |  |  |  | 0.86 ± 0.05 µM |  |
| O=C(C=Cc1ccc(-c2cc3c(c(C45CC6CC(CC(C6)C4)C5)c2)OCCO3)cc1)NO [ST3081, 3-[4-(8-Adamantan-1-yl-2,3-dihydro-benzo[1,4]dioxin-6-yl)-phenyl]-N-hydroxy-acrylamide] |  | 1000 ± 40 nM | 1480 ± 190 nM | 2550 ± 30 nM | the same characteristic are retained | 1390 ± 140 nM | 0.94 |  | IC50 ([3]; Homo sapiens, Table 2, SRB): 1220 ± 40 nM; IC50 ([4]; Homo sapiens, Table 2, SRB): 840 ± 20 nM |
| O=C(O)c1ccc2cc(-c3ccc(O)c(C45CC6CC(CC(C6)C4)C5)c3)ccc2c1 [ST1964, 6-[3′-(1-adamantyl)-4′-hydroxyphenyl]-2-naphthalenecarboxylic acid, reference compound] | no differentiation |  | 370 ± 20 nM |  |  | 12700 ± 700 nM | 34 | 0.4 ± 0.05 µM |  |
| O=C(/C=C/c1ccc(-c2ccccc2)cc1)NO [ST3256, E-3-(biphenyl-4-yl)-N-hydroxy-acrylamide, reference compound] | no differentiation |  |  |  |  |  |  | 0.9 ± 0.1 µM |  |
| O=C(O)/C=C/c1ccc(-c2ccc(O)c(C34CC5CC(CC(C5)C3)C4)c2)cc1 [ST1926, E-3-(4′-hydroxy-3′-adamantylbiphenyl-4-yl)acrylic acid, reference compound] | no differentiation |  |  |  |  |  | 77.7 |  | IC50 [1, 8]: 0.082 ± 0.005 µM; IC50 ([5]; Table 3, sensitive NCI-H460): 130 ± 10 nM; IC50 [7]: 10100 ± 700 nM |
| COc1ccc(-c2ccc(/C=C/C(=O)O)cc2)cc1C12CC3CC(CC(C3)C1)C2 [ST1898, reference compound] |  |  |  |  |  |  | 53.6 |  | IC50 ([1]; Table 1, NB4, 24 h treatment, 48 h recovery, SRB, read-out: IC50 ± SD, NB4): 1.1 ± 0.07 µM; IC50 ([3]; Table 1, SRB): 1190 ± 50 nM; IC50 ([4]; Table 1, SRB): 1430 ± 50 nM; IC50 ([5]; Table 3, sensitive NCI-H460): 1200 ± 20 nM; IC50 [7]: 64400 ± 5000 nM |
